Assay results published in US20240300937A1, “Substituted 6-(Pyrimidin-4-yl)Quinoline Compounds as Cyclin Dependent Kinase Inhibitors” (BeiGene, Ltd., priority 2022, published 2024).

Legend:
CDK6/Cyclin D3 = CDK6/Cyclin D3 (Homo sapiens (Human), UniProt Q00534); test: CDK6/Cyclin D3 kinase TR-FRET inhibition assay; format: biochemical; conditions: 1 mM ATP, Rb (Ser780)-biotin substrate, read-out: CDK6D3 IC50
Procedure: (§1) Compounds disclosed herein were tested for inhibition of CDK4/Cyclin D1 or CDK6/Cyclin D3 kinase in an assay based on the time-resolved fluorescence-resonance energy transfer (TR-FRET) methodology. The assay was carried out in 384-well low volume black plates in a reaction mixture containing CDK4/Cyclin D1 or CDK6/Cyclin D3, 1 mM ATP, 0.15 μM Rb (Ser780)-biotin substrate and 0-10 μM compound in buffer containing 50 mM HEPES pH7.0, 0.02% NaN3, 0.01% BSA, 0.1 mM Orthovanadate, 50 mM MgCl2, 1 mM DTT and 0.005% Tween-20. The kinase was incubated with compound for 60 minutes at room temperature and the reaction was initiated by the addition of ATP and Rb (Ser780)-biotin substrate. After reaction at room temperature for 120 minutes, an equal volume of stop/detection solution was added according to the manufacture's instruction (Cisbio Bioassays). The stop/detection solution contained Streptavidin-XL665 and Anti-pRb (Ser780) mAb-Eu Cryptate in Detection buffer (Cisbio Bioassays). Plates were incubated at room temperature for 60 minutes, and the TR-FRET signals (ex337 nm, em665 nm/620 nm) were recorded on a PHERAstar FSX plate reader (BMG Labtech). The inhibition percentage of CDK4/Cyclin D1 or CDK6/Cyclin D3 kinase activity in presence of increasing concentrations of compounds was calculated based on the ratio of fluorescence at 665 nm to that at 620 nm. The IC50 for each compound was derived from fitting the data to the four-parameter logistic equation by Dotmatics.

CDK4/Cyclin D1 = CDK4/Cyclin D1 (Homo sapiens (Human), UniProt P11802); test: CDK4/Cyclin D1 kinase TR-FRET inhibition assay; format: biochemical; conditions: 1 mM ATP, Rb (Ser780)-biotin substrate, read-out: CDK4D1 IC50
Chain of CDK4/Cyclin D1 (P11802 whole entry): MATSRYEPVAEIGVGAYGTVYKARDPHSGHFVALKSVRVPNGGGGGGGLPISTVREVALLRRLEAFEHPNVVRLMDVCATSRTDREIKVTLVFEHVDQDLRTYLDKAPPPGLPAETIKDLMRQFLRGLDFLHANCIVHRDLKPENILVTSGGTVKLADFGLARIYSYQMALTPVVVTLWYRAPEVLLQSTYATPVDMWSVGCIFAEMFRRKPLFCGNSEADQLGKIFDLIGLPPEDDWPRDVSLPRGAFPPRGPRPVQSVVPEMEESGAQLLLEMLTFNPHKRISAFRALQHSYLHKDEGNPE
Chain of CDK4/Cyclin D1 (P24385 whole entry partner): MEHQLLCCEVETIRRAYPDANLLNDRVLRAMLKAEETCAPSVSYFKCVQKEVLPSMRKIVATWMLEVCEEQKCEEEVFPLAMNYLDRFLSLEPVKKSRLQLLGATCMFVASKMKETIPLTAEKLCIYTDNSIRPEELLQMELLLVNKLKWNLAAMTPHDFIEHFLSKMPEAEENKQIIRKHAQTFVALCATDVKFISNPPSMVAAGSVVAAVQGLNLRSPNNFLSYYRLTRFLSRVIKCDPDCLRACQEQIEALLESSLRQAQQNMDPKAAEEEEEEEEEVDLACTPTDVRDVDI
Procedure: as §1

Chain of CDK6/Cyclin D3 (Q00534 whole entry): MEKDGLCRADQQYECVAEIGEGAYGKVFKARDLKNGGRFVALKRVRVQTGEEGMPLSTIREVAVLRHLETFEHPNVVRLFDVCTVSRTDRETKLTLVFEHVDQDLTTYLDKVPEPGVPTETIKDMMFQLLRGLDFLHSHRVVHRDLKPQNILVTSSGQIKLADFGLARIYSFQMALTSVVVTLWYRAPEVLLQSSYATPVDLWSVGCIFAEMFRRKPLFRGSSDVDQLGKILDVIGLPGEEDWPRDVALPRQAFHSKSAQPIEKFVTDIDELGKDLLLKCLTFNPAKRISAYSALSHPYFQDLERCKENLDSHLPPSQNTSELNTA
Chain of CDK6/Cyclin D3 (P30281 whole entry partner): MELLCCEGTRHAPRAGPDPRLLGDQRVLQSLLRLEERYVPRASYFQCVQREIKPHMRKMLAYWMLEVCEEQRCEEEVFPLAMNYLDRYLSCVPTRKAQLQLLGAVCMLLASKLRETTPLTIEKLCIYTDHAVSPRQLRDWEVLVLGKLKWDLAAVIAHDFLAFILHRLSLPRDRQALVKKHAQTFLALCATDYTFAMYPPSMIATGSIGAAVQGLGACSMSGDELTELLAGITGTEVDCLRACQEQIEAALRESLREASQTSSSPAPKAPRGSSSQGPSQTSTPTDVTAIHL

SMILES | IC50 (CDK6/Cyclin D3) [nM] | IC50 (CDK4/Cyclin D1) [nM]
COCc1cnc2ccc(-c3nc(N[C@@H]4CCOC[C@H]4O)ncc3F)cc2c1C(C)C [Example 31, (3S,4R)-4-((5-fluoro-4-(4-isopropyl-3-(methoxymethyl)quinolin-6-yl)pyrimidin-2-yl)amino)tetrahydro-2H-pyran-3-ol] | 275 | 25
CC(C)c1c(CN2CCOCC23CC3)cnc2ccc(-c3nc(N[C@@H]4CCOC[C@H]4O)ncc3F)cc12 [Example 36, (3S,4R)-4-((4-(3-((7-oxa-4-azaspiro[2.5]octan-4-yl)methyl)-4-isopropylquinolin-6-yl)-5-fluoropyrimidin-2-yl)amino)tetrahydro-2H-pyran-3-ol] | 224 | 14
CC(C)c1c([C@H](C)O)cnc2ccc(-c3nc(N[C@@H]4CCOC[C@H]4O)ncc3F)cc12 [Example 41, (3S,4R)-4-((5-fluoro-4-(3-((S)-1-hydroxyethyl)-4-isopropylquinolin-6-yl)pyrimidin-2-yl)amino)tetrahydro-2H-pyran-3-ol] | 170 | 10
CC(C)c1c([C@@H](C)O)cnc2ccc(-c3nc(N[C@@H]4CCOC[C@H]4O)ncc3F)cc12 [Example 42, (3S,4R)-4-((5-fluoro-4-(3-((R)-1-hydroxyethyl)-4-isopropylquinolin-6-yl)pyrimidin-2-yl)amino)tetrahydro-2H-pyran-3-ol] | 480 | 32
CC(C)c1c(CNc2cnn(C)c2)cnc2ccc(-c3nc(N[C@@H]4CCOC[C@H]4O)ncc3F)cc12 [Example 43, (3S,4R)-4-((5-fluoro-4-(4-isopropyl-3-(((1-methyl-1H-pyrazol-4-yl)amino)methyl)quinolin-6-yl)pyrimidin-2-yl)amino)tetrahydro-2H-pyran-3-ol] | 533 | 41
CC(C)c1c(CN2CCCOCC2)cnc2ccc(-c3nc(N[C@@H]4CCOC[C@H]4O)ncc3F)cc12 [Example 44, (3S,4R)-4-((4-(3-((1,4-oxazepan-4-yl)methyl)-4-isopropylquinolin-6-yl)-5-fluoropyrimidin-2-yl)amino)tetrahydro-2H-pyran-3-ol] | 475 | 25
CC(C)c1c(CNc2ncccn2)cnc2ccc(-c3nc(N[C@@H]4CCOC[C@H]4O)ncc3F)cc12 [Example 45, (3S,4R)-4-((5-fluoro-4-(4-isopropyl-3-((pyrimidin-2-ylamino)methyl)quinolin-6-yl)pyrimidin-2-yl)amino)tetrahydro-2H-pyran-3-ol] | 286 | 22
COc1ccc(NCc2cnc3ccc(-c4nc(N[C@@H]5CCOC[C@H]5O)ncc4F)cc3c2C(C)C)cc1 [Example 46, (3S,4R)-4-((5-fluoro-4-(4-isopropyl-3-(((4-methoxyphenyl)amino)methyl)quinolin-6-yl)pyrimidin-2-yl)amino)tetrahydro-2H-pyran-3-ol] | 1040 | 65
CC(C)c1c([C@H](C)N2CC[C@@H](F)C2)cnc2ccc(-c3nc(N[C@@H]4CCOC[C@H]4O)ncc3F)cc12 [Example 47, (3S,4R)-4-((5-fluoro-4-(3-((S)-1-((R)-3-fluoropyrrolidin-1-yl)ethyl)-4-isopropylquinolin-6-yl)pyrimidin-2-yl)amino)tetrahydro-2H-pyran-3-ol] | 250 | 25
CC(C)c1c([C@@H](C)N2CC[C@@H](F)C2)cnc2ccc(-c3nc(N[C@@H]4CCOC[C@H]4O)ncc3F)cc12 [Example 48, (3S,4R)-4-((5-fluoro-4-(3-((R)-1-((R)-3-fluoropyrrolidin-1-yl)ethyl)-4-isopropylquinolin-6-yl)pyrimidin-2-yl)amino)tetrahydro-2H-pyran-3-ol] | 756 | 21
CC(C)c1c(CN2C[C@H]3C[C@@H]2CO3)cnc2ccc(-c3nc(N[C@@H]4CCOC[C@H]4O)ncc3F)cc12 [Example 49, (3S,4R)-4-((4-(3-(((1R,4R)-2-oxa-5-azabicyclo[2.2.1]heptan-5-yl)methyl)-4-isopropylquinolin-6-yl)-5-fluoropyrimidin-2-yl)amino)tetrahydro-2H-pyran-3-ol] | 392 | 14
CC(C)c1c(C2(O)CCCC2)cnc2ccc(-c3nc(N[C@@H]4CCOC[C@H]4O)ncc3F)cc12 [Example 50, (3S,4R)-4-((5-fluoro-4-(3-(1-hydroxycyclopentyl)-4-isopropylquinolin-6-yl)pyrimidin-2-yl)amino)tetrahydro-2H-pyran-3-ol] | 185 | 4.4

The remaining lines, values ahead:

IC50 (CDK6/Cyclin D3) [nM] | IC50 (CDK4/Cyclin D1) [nM] | SMILES
828 | 23 | CC(C)c1c(CNC[C@H]2CCOC2)cnc2ccc(-c3nc(N[C@@H]4CCOC[C@H]4O)ncc3F)cc12 [Example 27, (3S,4R)-4-((5-fluoro-4-(4-isopropyl-3-(((((R)-tetrahydrofuran-3-yl)methyl)amino)methyl)quinolin-6-yl)pyrimidin-2-yl)amino)tetrahydro-2H-pyran-3-ol]
703 | 19 | CC(C)c1c(CNC2CCCCC2)cnc2ccc(-c3nc(N[C@@H]4CCOC[C@H]4O)ncc3F)cc12 [Example 28]
860 | 20 | CC(C)c1c(CNC2CCOCC2)cnc2ccc(-c3nc(N[C@@H]4CCOC[C@H]4O)ncc3F)cc12 [Example 29, (3S,4R)-4-((5-fluoro-4-(4-isopropyl-3-(((tetrahydro-2H-pyran-4-yl)amino)methyl)quinolin-6-yl)pyrimidin-2-yl)amino)tetrahydro-2H-pyran-3-ol]
550 | 11 | CC(C)c1c(CN[C@@H]2CCCOC2)cnc2ccc(-c3nc(N[C@@H]4CCOC[C@H]4O)ncc3F)cc12 [Example 30, (3S,4R)-4-((5-fluoro-4-(4-isopropyl-3-((((R)-tetrahydro-2H-pyran-3-yl)amino)methyl)quinolin-6-yl)pyrimidin-2-yl)amino)tetrahydro-2H-pyran-3-ol]
484 | 11 | CC(C)c1c(CN[C@H]2CCOC2)cnc2ccc(-c3nc(N[C@@H]4CCOC[C@H]4O)ncc3F)cc12 [Example 32, (3S,4R)-4-((5-fluoro-4-(4-isopropyl-3-((((S)-tetrahydrofuran-3-yl)amino)methyl)quinolin-6-yl)pyrimidin-2-yl)amino)tetrahydro-2H-pyran-3-ol]
792 | 22 | CC(C)c1c(CNC[C@@H]2CCOC2)cnc2ccc(-c3nc(N[C@@H]4CCOC[C@H]4O)ncc3F)cc12 [Example 33, (3S,4R)-4-((5-fluoro-4-(4-isopropyl-3-(((((S)-tetrahydrofuran-3-yl)methyl)amino)methyl)quinolin-6-yl)pyrimidin-2-yl)amino)tetrahydro-2H-pyran-3-ol]
783 | 27 | CC(C)c1c(CNC[C@@H]2CCCO2)cnc2ccc(-c3nc(N[C@@H]4CCOC[C@H]4O)ncc3F)cc12 [Example 34, (3S,4R)-4-((5-fluoro-4-(4-isopropyl-3-(((((S)-tetrahydrofuran-2-yl)methyl)amino)methyl)quinolin-6-yl)pyrimidin-2-yl)amino)tetrahydro-2H-pyran-3-ol]
592 | 16 | CC(C)c1c(CN[C@@H]2CCOC2)cnc2ccc(-c3nc(N[C@@H]4CCOC[C@H]4O)ncc3F)cc12 [Example 35, (3S,4R)-4-((5-fluoro-4-(4-isopropyl-3-((((R)-tetrahydrofuran-3-yl)amino)methyl)quinolin-6-yl)pyrimidin-2-yl)amino)tetrahydro-2H-pyran-3-ol]
945 | 27 | CC(C)c1c(CN[C@H]2CCCOC2)cnc2ccc(-c3nc(N[C@@H]4CCOC[C@H]4O)ncc3F)cc12 [Example 37, (3S,4R)-4-((5-fluoro-4-(4-isopropyl-3-((((S)-tetrahydro-2H-pyran-3-yl)amino)methyl)quinolin-6-yl)pyrimidin-2-yl)amino)tetrahydro-2H-pyran-3-ol]
176 | 4.4 | CC(C)c1c(CN)cnc2ccc(-c3nc(N[C@@H]4CCOC[C@H]4O)ncc3F)cc12 [Example 38, (3S,4R)-4-((4-(3-(aminomethyl)-4-isopropylquinolin-6-yl)-5-fluoropyrimidin-2-yl)amino)tetrahydro-2H-pyran-3-ol]
750 | 25 | CC(C)c1c(CN[C@H]2CCOC2)cnc2ccc(-c3nc(N[C@@H]4CCOC[C@H]4O)ncc3F)cc12 [Example 39, (3S,4R)-4-((5-fluoro-4-(4-isopropyl-3-((((S)-tetrahydrofuran-3-yl)amino)methyl)quinolin-6-yl)pyrimidin-2-yl)amino)tetrahydro-2H-pyran-3-ol]
759 | 33 | CC(C)c1c(CN[C@@H]2CCOC2)cnc2ccc(-c3nc(N[C@@H]4CCOC[C@H]4O)ncc3F)cc12 [Example 40, (3S,4R)-4-((5-fluoro-4-(4-isopropyl-3-((((R)-tetrahydrofuran-3-yl)amino)methyl)quinolin-6-yl)pyrimidin-2-yl)amino)tetrahydro-2H-pyran-3-ol]
